Test [1] is described as follows: Inhibition of BRD BD1 (unknown origin) by alpha screen assay. More on the design: species or system Homo sapiens.
Test [2] is described as follows: Inhibition of BRD BD2 (unknown origin) by alpha screen assay. On the set-up: species or system Homo sapiens.
Test [3] is filed under the species Homo sapiens. As to the kind of experiment: Selectivity ratio of IC50 for BRD BD1 (unknown origin) to IC50 for BRD BD2 (unknown origin).
For test [4], the target named is T1, Bromodomain-containing protein 4 (Homo sapiens, UniProt O60885). As to the kind of experiment: Inhibition of his 6 tagged BRD4 D1 (unknown origin) expressed in Escherichia coli BL21 (DE3) by fluorescence anisotropy assay.
The species entered for test [5] is Homo sapiens. Put plainly: Selectivity ratio of IC50 for BRD4 BD2 (unknown origin) to IC50 for BRD4 BD1 (unknown origin).
Test [6] has as its target Mitogen-activated protein kinase 14 (Homo sapiens, UniProt Q16539).
Description: Binding affinity to p38 alpha (unknown origin) assessed as dissociation constant by DiscoverX kinomescan method
Test [7] addresses T2, Bromodomain-containing protein 2 (Homo sapiens, UniProt P25440). Put plainly: Binding affinity to BDR2-BD1 (unknown origin) by TR-FRET assay. (Time-resolved FRET reads energy transfer from a long-lived donor to a nearby acceptor.)
Test [8] addresses T2, Bromodomain-containing protein 2. Put plainly: Binding affinity to BDR2- BD2 (unknown origin) by TR-FRET assay.
Test [9] is filed under the species Homo sapiens. As to the kind of experiment: Selectivity ratio of Kd for BRD2 BD1 (unknown origin) to Kd for BRD2 BD2 (unknown origin).
The target of test [10] is T1, Bromodomain-containing protein 4. Put plainly: Binding affinity to human BRD4 BD1 assessed as inhibition constant incubated for 1 hr by competitive binding assay.
Test [11] shares this target. Put plainly: Binding affinity to human BRD4 BD2 assessed as inhibition constant incubated for 1 hr by competitive binding assay.
For test [12], the species on record is Homo sapiens. Put plainly: Selectivity ratio of Ki for human BRD4 BD2 to Ki for BRD4 BD1.
The species entered for test [13] is Homo sapiens. Put plainly: Selectivity ratio of Kd for BRD4 BD1 (unknown origin) to Kd for BRD4 BD2 (unknown origin).

Usually IC50 stands for the point on the concentration scale where inhibition reaches its midpoint. Read a low IC50 as greater potency. What is called Kd is a measure of binding affinity in units of concentration. A high value points to lower affinity. Broadly, the Ki is the dissociation constant of the complex between target and ligand, obtained from inhibition or displacement.

T2 sequence (P25440 whole entry): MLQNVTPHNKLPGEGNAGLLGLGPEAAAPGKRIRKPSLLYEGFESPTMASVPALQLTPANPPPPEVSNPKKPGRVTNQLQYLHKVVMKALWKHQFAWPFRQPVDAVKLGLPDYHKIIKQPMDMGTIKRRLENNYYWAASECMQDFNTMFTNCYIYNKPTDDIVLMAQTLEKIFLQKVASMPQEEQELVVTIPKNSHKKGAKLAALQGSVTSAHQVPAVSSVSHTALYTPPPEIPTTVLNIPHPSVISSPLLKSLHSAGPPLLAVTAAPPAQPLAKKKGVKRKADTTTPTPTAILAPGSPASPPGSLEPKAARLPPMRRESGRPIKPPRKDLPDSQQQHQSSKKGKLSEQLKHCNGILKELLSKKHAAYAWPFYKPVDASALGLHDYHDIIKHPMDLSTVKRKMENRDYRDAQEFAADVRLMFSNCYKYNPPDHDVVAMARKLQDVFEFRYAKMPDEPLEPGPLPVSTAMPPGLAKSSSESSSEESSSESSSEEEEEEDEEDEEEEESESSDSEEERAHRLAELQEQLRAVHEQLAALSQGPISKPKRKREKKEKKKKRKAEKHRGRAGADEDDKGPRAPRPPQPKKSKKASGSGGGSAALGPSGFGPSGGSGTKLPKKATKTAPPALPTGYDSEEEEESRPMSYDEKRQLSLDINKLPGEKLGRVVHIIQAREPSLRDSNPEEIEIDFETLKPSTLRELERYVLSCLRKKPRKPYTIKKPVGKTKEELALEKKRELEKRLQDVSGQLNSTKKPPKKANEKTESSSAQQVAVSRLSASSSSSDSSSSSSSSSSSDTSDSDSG
Mitogen-activated protein kinase 14, sequence (Q16539 whole entry): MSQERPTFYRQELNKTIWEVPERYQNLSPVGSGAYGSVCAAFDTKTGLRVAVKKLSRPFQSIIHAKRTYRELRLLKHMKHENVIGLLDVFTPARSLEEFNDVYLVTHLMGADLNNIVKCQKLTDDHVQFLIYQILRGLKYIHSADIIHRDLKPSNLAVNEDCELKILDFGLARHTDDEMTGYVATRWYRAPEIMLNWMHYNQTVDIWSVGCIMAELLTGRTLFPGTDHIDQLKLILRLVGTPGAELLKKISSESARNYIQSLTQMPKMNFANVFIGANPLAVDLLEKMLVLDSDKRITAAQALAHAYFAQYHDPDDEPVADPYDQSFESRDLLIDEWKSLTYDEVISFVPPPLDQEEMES

For the compound `COc1cc(OC)c2c(=O)[nH]c(-c3cc(C)c(OCCN4CCCC4)c(C)c3)nc2c1`, the IC50 is 1160 nM in test [1] and 20 nM in [2]. In addition, the Ratio IC50 in test [3] stood at 40.
In the case of `Cc1cc(C)cc(Oc2nccc(-c3c(-c4ccc(C(F)(F)F)cc4)ncn3C3CCN(CCN)CC3)n2)c1`, in test [4], it took 130 nM to reach half-maximal inhibition (IC50). Further, the Ratio IC50 in test [5] stood at 9. Also, the equilibrium dissociation constant (Kd) in test [6] was determined as 1900 nM.
As for `COC(=O)c1ccc(N[C@@H]2C[C@H](C)N(C(C)=O)c3ccc(-c4cccc(NC(C)=O)c4)cc32)cc1`, the Kd in test [7] came to 931 nM; in [8], 14 nM. For the same compound, the Ratio in [9] came to 67.
With `COc1ccc(NC(=O)c2ccc(NC3=C(C)C(=O)CC3)c(Cl)c2)cc1`, the figures for the inhibition constant Ki in [10] and in test [11] were 77 nM and 718 nM, respectively. Also, the Ratio Ki in test [12] was found to be 9.
On to `CC(=O)N1c2ccc(-c3cc[nH]n3)cc2[C@H](Nc2ccc(C#N)cc2)C[C@@H]1C`, for which the dissociation constant Kd in test [7] came out at 490 nM; in [8], 6 nM. Besides, the Ratio in test [9] amounted to 80; in [13], 152.

(Values after ChEMBL document CHEMBL5241103, “Progress in the development of domain selective inhibitors of the bromo and extra terminal domain family (BET) proteins” (Eur J Med Chem, 2021).)
